According to patent US9598446B2, “Amino compounds for treatment of complement mediated disorders” (priority 2014, dated 2017):
pIC50: −log10 of the molar value.

These molecules were tested against Human factor D (Homo sapiens (Human), UniProt P00746) (assay: Human Factor D Assay). Settings: not given.
Type: biochemical

Sequence of Human factor D (P00746 26-253): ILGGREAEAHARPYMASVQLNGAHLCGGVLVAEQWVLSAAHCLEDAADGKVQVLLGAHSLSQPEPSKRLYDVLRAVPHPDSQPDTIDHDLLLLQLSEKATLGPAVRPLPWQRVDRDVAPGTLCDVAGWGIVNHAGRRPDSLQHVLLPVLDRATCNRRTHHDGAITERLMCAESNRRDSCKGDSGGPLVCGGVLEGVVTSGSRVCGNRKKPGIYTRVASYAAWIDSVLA

Question: `CC(=O)c1cn(CC(=O)N2C[C@H](F)C[C@H]2C(=O)Nc2ccccc2-n2nccc2C)c2ccc(Nc3cncnc3)cc12` [Compound 30, (2S,4R)-1-(2-(3-acetyl-5-(pyrimidin-5-ylamino)-1H-indol-1-yl)acetyl)-4-fluoro-N-(2-(5-methyl-1H-pyrazol-1-yl)phenyl)pyrrolidine-2-carboxamide] was tested. Which pIC50 did it give?
Answer: 5.00 to 6.00

Question: How did the pIC50 turn out when `CC(=O)c1cn(CC(=O)N2C[C@H](F)C[C@H]2C(=O)Nc2nnc(-c3ccccc3Cl)s2)c2ccc(Nc3cncnc3)cc12` [Compound 34, (2S,4R)-1-(2-(3-acetyl-5-(pyrimidin-5-ylamino)-1H-indol-1-yl)acetyl)-N-(5-(2-chlorophenyl)-1,3,4-thiadiazol-2-yl)-4-fluoropyrrolidine-2-carboxamide] was run?
Answer: 5.00 to 6.00

Question: How did the pIC50 turn out when `CC(=O)c1cn(CC(=O)N2C[C@H](F)C[C@H]2C(=O)N[C@H]2CCCC[C@@H]2O)c2ccc(Nc3cncnc3)cc12` [Compound 36, (2S,4R)-1-(2-(3-acetyl-5-(pyrimidin-5-ylamino)-1H-indol-1-yl)acetyl)-4-fluoro-N-((1S,2S)-2-hydroxycyclohexyl)pyr-rolidine-2-carboxamide] was run?
Answer: 5.00 to 6.00

Question: How did the pIC50 turn out when `CC(=O)c1cn(CC(=O)N2C[C@H](F)C[C@H]2C(=O)Nc2cccc(Cl)c2-n2cncn2)c2ccc(Nc3cncnc3)cc12` [Compound 37, (2S,4R)-1-(2-(3-acetyl-5-(pyrimidin-5-ylamino)-1H-indol-1-yl)acetyl)-N-(3-chloro-2-(1H-1,2,4-triazol-1-yl)phenyl)-4-fluoropyrrolidine-2-carboxamide] was run?
Answer: 5.00 to 6.00

Question: With `CC(=O)c1cn(CC(=O)N2C[C@H](F)C[C@H]2C(=O)Nc2ccccc2N2CCOC2=O)c2ccc(Nc3cncnc3)cc12` [Compound 40, (2S,4R)-1-(2-(3-acetyl-5-(pyrimidin-5-ylamino)-1H-indol-1-yl)acetyl)-4-fluoro-N-(2-(2-oxooxazolidin-3-yl)phenyl)pyrrolidine-2-carboxamide] as the molecule, how does the pIC50 read?
Answer: 5.00 to 6.00

Question: How did the pIC50 turn out when `CC(=O)c1cn(CC(=O)N2C[C@H](F)C[C@H]2C(=O)Nc2nc(-c3c(C)nc4sccn34)cs2)c2ccc(Nc3cncnc3)cc12` [Compound 49, (2S,4R)-1-(2-(3-acetyl-5-(pyrimidin-5-ylamino)-1H-indol-1-yl)acetyl)-4-fluoro-N-(4-(6-methylimidazo[2,1-b]thiazol-5-yl)thiazol-2-yl)pyrrolidine-2-carboxamide] was run?
Answer: 5.00 to 6.00

Question: `CC(=O)c1cn(CC(=O)N2C[C@H](F)C[C@H]2C(=O)NC2CCc3c(F)ccc(F)c32)c2ccc(Nc3cncnc3)cc12` (stereo partly drawn) [Compound 51, (2S,4R)-1-(2-(3-acetyl-5-(pyrimidin-5-ylamino)-1H-indol-1-yl)acetyl)-N-(4,7-difluoro-2,3-dihydro-1H-inden-1-yl)-4-fluoropyrrolidine-2-carboxamide] was tested. Which pIC50 did it give?
Answer: 5.00 to 6.00

Question: With `CC(=O)c1cn(CC(=O)N2C[C@H](F)C[C@H]2C(=O)Nc2ccc(CN)cc2)c2ccc(Nc3cncnc3)cc12` [Compound 53, (2S,4R)-1-(2-(3-acetyl-5-(pyrimidin-5-ylamino)-1H-indol-1-yl)acetyl)-N-(4-(aminomethyl)phenyl)-4-fluoropyrrolidine-2-carboxamide] as the molecule, how does the pIC50 read?
Answer: 5.00 to 6.00

Question: With `COc1cc(C)cc2c1OCCC2NC(=O)[C@@H]1C[C@@H](F)CN1C(=O)Cn1cc(C(C)=O)c2cc(Nc3cncnc3)ccc21` (stereo partly drawn) [Compound 54, (2S,4R)-1-(2-(3-acetyl-5-(pyrimidin-5-ylamino)-1H-indol-1-yl)acetyl)-4-fluoro-N-(8-methoxy-6-methylchroman-4-yl)pyrrolidine-2-carboxamide] as the molecule, how does the pIC50 read?
Answer: 5.00 to 6.00

Question: With `CC(=O)c1cn(CC(=O)N2C[C@H](F)C[C@H]2C(=O)Nc2c[nH]nc2-c2ccc(Cl)cc2Cl)c2ccc(Nc3cncnc3)cc12` [Compound 55, (2S,4R)-1-(2-(3-acetyl-5-(pyrimidin-5-ylamino)-1H-indol-1-yl)acetyl)-N-(3-(2,4-dichlorophenyl)-1H-pyrazol-4-yl)-4-fluoropyrrolidine-2-carboxamide] as the molecule, how does the pIC50 read?
Answer: 5.00 to 6.00

Same assay, conditions: human factor D 80 nM, substrate Z-L-Lys-SBz1 and DTNB 100 μM each, pH 7.5; read-out: IC50

Question: With `CC(=O)c1cn(CC(=O)N2C[C@H](F)C[C@H]2C(=O)Nc2cccnc2)c2ccc(Nc3cncnc3)cc12` [Compound 31, (2S,4R)-1-(2-(3-acetyl-5-(pyrimidin-5-ylamino)-1H-indol-1-yl)acetyl)-4-fluoro-N-(pyridin-3-yl)pyrrolidine-2-carboxamide] as the molecule, how does the pIC50 read?
Answer: > 6.00

Question: How did the pIC50 turn out when `CC(=O)c1cn(CC(=O)N2C[C@H](F)C[C@H]2C(=O)Nc2ccccc2-c2nc3ccccc3s2)c2ccc(Nc3cncnc3)cc12` [Compound 32, (2S,4R)-1-(2-(3-acetyl-5-(pyrimidin-5-ylamino)-1H-indol-1-yl)acetyl)-N-(2-(benzo[d]thiazol-2-yl)phenyl)-4-fluoropyrrolidine-2-carboxamide] was run?
Answer: < 5.00

Question: With `CC(=O)c1cn(CC(=O)N2C[C@H](F)C[C@H]2C(=O)Nc2cncc(Cl)n2)c2ccc(Nc3cncnc3)cc12` [Compound 33, (2S,4R)-1-(2-(3-acetyl-5-(pyrimidin-5-ylamino)-1H-indol-1-yl)acetyl)-N-(6-chloropyrazin-2-yl)-4-fluoropyrrolidine-2-carboxamide] as the molecule, how does the pIC50 read?
Answer: > 6.00

Question: With `CC(=O)c1cn(CC(=O)N2C[C@H](F)C[C@H]2C(=O)Nc2cc3c(cc2F)OC(F)(F)O3)c2ccc(Nc3cncnc3)cc12` [Compound 35, (2S,4R)-1-(2-(3-acetyl-5-(pyrimidin-5-ylamino)-1H-indol-1-yl)acetyl)-4-fluoro-N-(2,2,6-trifluorobenzo[d][1,3]dioxol-5-yl)pyrrolidine-2-carboxamide] as the molecule, how does the pIC50 read?
Answer: > 6.00

Question: `CC(=O)c1cn(CC(=O)N2C[C@H](F)C[C@H]2C(=O)Nc2ccc3[nH]c(C)c(C)c3c2)c2ccc(Nc3cncnc3)cc12` [Compound 38, (2S,4R)-1-(2-(3-acetyl-5-(pyrimidin-5-ylamino)-1H-indol-1-yl)acetyl)-N-(2,3-dimethyl-1H-indol-5-yl)-4-fluoropyrrolidine-2-carboxamide] was tested. Which pIC50 did it give?
Answer: > 6.00

Question: How did the pIC50 turn out when `CC(=O)c1cn(C(=O)CN2C[C@H](F)C[C@H]2C(=O)Nc2nnc(-c3ccc(Cl)c(Cl)c3)s2)c2ccc(Nc3cncnc3)cc12` [Compound 39, (2S,4R)-1-(2-(3-acetyl-5-(pyrimidin-5-ylamino)-1H-indol-1-yl)-2-oxoethyl)-N-(5-(3,4-dichlorophenyl)-1,3,4-thiadiazol-2-yl)-4-fluoropyrrolidine-2-carboxamide] was run?
Answer: < 5.00

Question: With `CC(=O)c1cn(CC(=O)N2C[C@H](F)C[C@H]2C(=O)Nc2cc(C)nc3nc(C(F)(F)F)nn23)c2ccc(Nc3cncnc3)cc12` [Compound 41, (2S,4R)-1-(2-(3-acetyl-5-(pyrimidin-5-ylamino)-1H-indol-1-yl)acetyl)-4-fluoro-N-(5-methyl-2-(trifluoromethyl)-[1,2,4]triazolo[1,5-a]pyrimidin-7-yl)pyrrolidine-2-carboxamide] as the molecule, how does the pIC50 read?
Answer: < 5.00

Question: How did the pIC50 turn out when `CC(=O)c1cn(CC(=O)N2C[C@H](F)C[C@H]2C(=O)NC2CCCN(c3cnn(C)c3)C2)c2ccc(Nc3cncnc3)cc12` (stereo partly drawn) [Compound 42, (2S,4R)-1-(2-(3-acetyl-5-(pyrimidin-5-ylamino)-1H-indol-1-yl)acetyl)-4-fluoro-N-(1-(1-methyl-1H-pyrazol-4-yl)piperidin-3-yl)pyrrolidine-2-carboxamide] was run?
Answer: > 6.00

Question: How did the pIC50 turn out when `CC(=O)c1cn(CC(=O)N2C[C@H](F)C[C@H]2C(=O)NCc2cccnc2)c2ccc(Nc3cncnc3)cc12` [Compound 43, (2S,4R)-1-(2-(3-acetyl-5-(pyrimidin-5-ylamino)-1H-indol-1-yl)acetyl)-4-fluoro-N-(pyridin-3-ylmethyl)pyrrolidine-2-carboxamide] was run?
Answer: > 6.00

Question: With `CC(=O)c1cn(CC(=O)N2C[C@H](F)C[C@H]2C(=O)Nc2ncc(Br)cn2)c2ccc(Nc3cncnc3)cc12` [Compound 44, (2S,4R)-1-(2-(3-acetyl-5-(pyrimidin-5-ylamino)-1H-indol-1-yl)acetyl)-N-(5-bromopyrimidin-2-yl)-4-fluoropyrrolidine-2-carboxamide] as the molecule, how does the pIC50 read?
Answer: > 6.00

Question: How did the pIC50 turn out when `CC(=O)c1cn(CC(=O)N2C[C@H](F)C[C@H]2C(=O)Nc2ccc(OCc3ccccc3)cn2)c2ccc(Nc3cncnc3)cc12` [Compound 45, (2S,4R)-1-(2-(3-acetyl-5-(pyrimidin-5-ylamino)-1H-indol-1-yl)acetyl)-N-(5-(benzyloxy)pyridin-2-yl)-4-fluoropyrrolidine-2-carboxamide] was run?
Answer: > 6.00

Question: How did the pIC50 turn out when `CC(=O)c1cn(CC(=O)N2C[C@H](F)C[C@H]2C(=O)Nc2ccc3ccccc3c2)c2ccc(Nc3cncnc3)cc12` [Compound 46, (2S,4R)-1-(2-(3-acetyl-5-(pyrimidin-5-ylamino)-1H-indol-1-yl)acetyl)-4-fluoro-N-(naphthalen-2-yl)pyrrolidine-2-carboxamide] was run?
Answer: > 6.00

Question: `CC(=O)c1cn(CC(=O)N2C[C@H](F)C[C@H]2C(=O)Nc2cncc(Br)n2)c2ccc(Nc3cncnc3)cc12` [Compound 47, (2S,4R)-1-(2-(3-acetyl-5-(pyrimidin-5-ylamino)-1H-indol-1-yl)acetyl)-N-(6-bromopyrazin-2-yl)-4-fluoropyrrolidine-2-carboxamide] was tested. Which pIC50 did it give?
Answer: > 6.00

Question: With `CC(=O)c1cn(CC(=O)N2C[C@H](F)C[C@H]2C(=O)Nc2cccc(Cl)c2C(F)(F)F)c2ccc(Nc3cncnc3)cc12` [Compound 48, (2S,4R)-1-(2-(3-acetyl-5-(pyrimidin-5-ylamino)-1H-indol-1-yl)acetyl)-N-(3-chloro-2-(trifluoromethyl)-phenyl)-4-fluoropyrrolidine-2-carboxamide] as the molecule, how does the pIC50 read?
Answer: > 6.00

Question: How did the pIC50 turn out when `CC(=O)c1cn(CC(=O)N2C[C@H](F)C[C@H]2C(=O)Nc2nc(-c3ccc4c(c3)CCCC4)cs2)c2ccc(Nc3cncnc3)cc12` [Compound 50, (2S,4R)-1-(2-(3-acetyl-5-(pyrimidin-5-ylamino)-1H-indol-1-yl)acetyl)-4-fluoro-N-(4-(5,6,7,8-tetrahydronaphthalen-2-yl)thiazol-2-yl)pyrrolidine-2-carboxamide] was run?
Answer: < 5.00

Question: How did the pIC50 turn out when `CC(=O)c1cn(CC(=O)N2C[C@H](F)C[C@H]2C(=O)Nc2ccc3ncsc3c2)c2ccc(Nc3cncnc3)cc12` [Compound 56, (2S,4R)-1-(2-(3-acetyl-5-(pyrimidin-5-ylamino)-1H-indol-1-yl)acetyl)-N-(benzo[d]thiazol-6-yl)-4-fluoropyrrolidine-2-carboxamide] was run?
Answer: > 6.00
